# Experimental data published in patent US8495760B2, “Atomic force microscope manipulation of living cells” (The Board of Trustees of the Leland Stanford Junior …, priority 2010, dated 2013).
# What was measured:
# hESC-CM = assay: AFM measurement of beat force and beat rate of solitary hESC-derived cardiomyocytes; format: cell-based, human
# Text: (§1) In step 1441, the nanoscale tip of the microscale cantilever of the AFM is controlled to apply gentle pressure to a location on the cardiomyocyte. […] In experimental embodiments described in more detail below, one or more cardiomyocytes were gently contacted by the cantilever tip with 100 pN of force, producing a typical cellular indentation of about 200 nm to about 500 nm. In various embodiments the contact force falls in a range from about 0.05 to about 1 nN. Thus, in some embodiments, a method includes operating a controller for the microscale cantilever to cause the nanoscale tip to contact the cardiomyocyte at a predetermined pressure.
# (§2) In step 1443, the indentation is measured and the vertical deflection feedback is turned off to allow the cantilever to move with the contractions of the beating cardiomyocyte. […]
# (§3) In step 1445, the time history of vertical deflection of the cantilever at the location on the cell is measured and recorded. FIG. 15 is a graph 1500 that illustrates an example measured force time series when the AFM cantilever interacts with the living cardiomyocyte, according to an embodiment. […]
# (§4) In step 1447, beat characteristics of the cell are determined. For example, the beat force, duration (width) and rate (frequency) are determined based on the time history of vertical deflection in trace 1510. […]
# iPSC-CM = assay: AFM measurement of beat force and beat rate of solitary iPSC-derived cardiomyocytes; format: cell-based, human
# Text: as §1, §2, §3, §4
smiles,measurement,setting,value
"NC[C@H](O)c1ccc(O)c(O)c1 [norepinephrine, 4-[(1R)-2-amino-1-hydroxyethyl]benzene-1,2-diol]",effect on the beat rate,hESC-CM; hESC-CM after treatment with norepinephrine 100 μmol/L,minimal effect
same,contraction force (beat force) after treatment,"hESC-CM; solitary hESC-CM, norepinephrine 100 μmol/L, immediately following treatment, before treatment 0.097±0.019 nN, p<0.001",0.31±0.03 nN
same,beats faster than a cutoff of 1.7 beats/s,"iPSC-CM; iPSC-CM after applying NE 100 μmol/L, 6% prior to treatment",21%
same,contraction force (beat force) after treatment,"iPSC-CM; solitary iPSC-CM, norepinephrine 100 μmol/L, immediately following treatment, before treatment 0.18±0.06 nN, p<0.001",0.48±0.23 nN
